This note sets out measurements from ChEMBL document CHEMBL5584232, “Hijacking monopolar spindle 1 (MPS1) for various cancer types by small molecular inhibitors: Deep insights from a decade of research and patents” (Eur J Med Chem, 2024).

The structures appear in SMILES notation.

For data set [1], the system named is A549. In words: Antiproliferative activity against human A549 cells assessed as reduction in cell growth incubated for 48 hrs by MTT assay. To be noted: A549, 48 h. In kind it is functional, cell-based. For orientation: Formazan colour is commonly taken as a measure of viable cells.
Data set [2] concerns MOLT-4. In words: Antiproliferative activity against human MOLT-4 cells assessed as reduction in cell growth incubated for 72 hrs by MTT assay. In kind it is functional, cell-based. The conditions noted are these: MOLT-4, 72 h.
Data set [3] concerns the target T1, Aurora kinase A (Homo sapiens, UniProt O14965).
T1 sequence (O14965 whole entry): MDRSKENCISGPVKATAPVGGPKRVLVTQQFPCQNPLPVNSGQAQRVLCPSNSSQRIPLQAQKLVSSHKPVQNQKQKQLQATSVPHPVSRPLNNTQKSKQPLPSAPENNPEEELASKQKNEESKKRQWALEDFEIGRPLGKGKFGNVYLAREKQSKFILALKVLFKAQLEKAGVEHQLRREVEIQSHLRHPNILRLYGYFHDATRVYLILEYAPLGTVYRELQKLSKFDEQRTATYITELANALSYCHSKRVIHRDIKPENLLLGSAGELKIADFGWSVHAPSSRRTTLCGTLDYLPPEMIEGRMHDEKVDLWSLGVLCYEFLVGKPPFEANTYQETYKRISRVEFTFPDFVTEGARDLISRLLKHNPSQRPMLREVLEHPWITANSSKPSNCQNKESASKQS
In words: Inhibition of AURORA-A (unknown origin).

Data set [4] in a line: Metabolic stability in mouse liver microsomes assessed as drug metabolism measured after 30 mins. In kind it is ADME, Microsome. To be noted: read-out: Drug metabolism. On the technique in general: Microsomes from liver hold many membrane-bound enzymes, among them those of drug oxidation.
The target of data set [5] is Mitogen-activated protein kinase 8 (Homo sapiens, UniProt P45983). In words: Inhibition of JNK1 (unknown origin) using ATF2 as substrate after 1 hr by Lanthascreen TR-FRET assay. On the technique in general: Time-resolved FRET reads energy transfer from a long-lived donor to a nearby acceptor.
Data set [6] relates to HCT-116. Description: Antitumor activity against human HCT-116 cells xenografted in athymic nude BALB/c mouse assessed as reduction in tumor growth at 12.5 mg/kg, ip administered every other day and measured every other day for 16 days. The data set is classed as functional. To be noted: HCT-116, 384 h, time 16 day, read-out: TGI.
In data set [7] the target is CYP450 (Homo sapiens, UniProt P04798+P05177+P05181+P08684+P10632+P10635+P11509+P11712+P13584+P20813+P20815+P20853+P24462+P24903+P33260+P33261+P51589+P78329+P98187+Q02928+Q08477+Q16678+Q16696+Q5TCH4+Q6VVX0+Q7Z449+Q8TAV3+Q96SQ9+Q9HB55). Description: Inhibition of CYP450 (unknown origin). The data set is classed as ADME, protein assay.
The nature of data set [8]: Clearance in Beagle dog at 0.5 mg/kg, iv measured for 24 hrs by LC-MS/MS analysis. The data set is classed as ADME, organism-based, Canis lupus familiaris. To be noted: in vivo.
Data set [9] can be described thus: Dose normalized AUC in Beagle dog at 1 mg/kg, po measured for 24 hrs by LC-MS/MS analysis. The data set is classed as ADME, organism-based, Canis lupus familiaris. To be noted: in vivo.
Data set [10] can be described thus: Clearance in Wistar rat at 1 mg/kg, iv measured after 24 hrs by LC-MS/MS analysis. In kind it is ADME, organism-based. The conditions noted are these: in vivo.
Data set [11] is described as follows: Dose normalized AUC in Wistar rat at 1 mg/kg, po measured for 24 hrs by LC-MS/MS analysis. In kind it is ADME, organism-based. To be noted: in vivo.
Data set [12] can be described thus: Cmax in ICR mouse at 3 mg/kg, po. In kind it is ADME, organism-based. The conditions noted are these: in vivo.
Data set [13] can be described thus: Cmax in Sprague-Dawley rat at 3 mg/kg, po by LC-MS/MS analysis. The data set is classed as ADME, organism-based. The conditions noted are these: in vivo.
A short description of data set [14]: AUC in ICR mouse at 3 mg/kg, po and measured after 24 hrs by LC-MS/MS analysis. In kind it is ADME, organism-based. The conditions noted are these: in vivo.
Data set [15] in a line: Oral bioavailability in ICR mouse at 5 mg/kg by LC-MS/MS analysis. In kind it is ADME, organism-based. To be noted: in vivo.
For data set [16], the system named is CAL-51. Description: Antiproliferative activity against human CAL-51 cells assessed as reduction in cell viability incubated for 72 hrs by MTT assay. In kind it is functional, cell-based. To be noted: CAL-51, 72 h.
In data set [17] the target is T2, Dual specificity protein kinase TTK (Homo sapiens, UniProt P33981).
T2 sequence (P33981 whole entry): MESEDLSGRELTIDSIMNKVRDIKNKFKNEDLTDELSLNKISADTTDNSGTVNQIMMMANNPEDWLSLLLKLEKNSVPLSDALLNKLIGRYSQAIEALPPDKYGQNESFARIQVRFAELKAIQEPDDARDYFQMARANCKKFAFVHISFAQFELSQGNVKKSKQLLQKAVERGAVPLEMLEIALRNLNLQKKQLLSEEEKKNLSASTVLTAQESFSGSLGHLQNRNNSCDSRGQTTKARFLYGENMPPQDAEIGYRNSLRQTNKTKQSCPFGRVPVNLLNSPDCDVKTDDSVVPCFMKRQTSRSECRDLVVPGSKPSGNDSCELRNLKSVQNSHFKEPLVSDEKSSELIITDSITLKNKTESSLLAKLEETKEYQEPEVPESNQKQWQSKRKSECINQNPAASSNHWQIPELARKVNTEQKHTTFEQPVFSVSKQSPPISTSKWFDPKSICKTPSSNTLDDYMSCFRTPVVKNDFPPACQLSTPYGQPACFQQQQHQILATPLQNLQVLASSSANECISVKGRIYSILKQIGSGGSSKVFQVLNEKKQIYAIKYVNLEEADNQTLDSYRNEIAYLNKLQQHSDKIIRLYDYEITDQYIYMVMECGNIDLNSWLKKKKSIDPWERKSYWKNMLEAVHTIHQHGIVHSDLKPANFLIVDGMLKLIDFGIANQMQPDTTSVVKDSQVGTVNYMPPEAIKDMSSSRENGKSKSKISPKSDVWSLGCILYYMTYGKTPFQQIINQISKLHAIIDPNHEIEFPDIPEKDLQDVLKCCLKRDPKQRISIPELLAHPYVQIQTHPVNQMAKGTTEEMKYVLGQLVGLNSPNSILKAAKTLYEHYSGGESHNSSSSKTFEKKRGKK
In words: Inhibition of MPS1 (unknown origin).

A short description of data set [18]: AUC in Sprague-Dawley rat at 3 mg/kg, po by LC-MS/MS analysis. To be noted: in vivo. The data set is classed as ADME, organism-based.
The test system of data set [19] is CAL-51. In words: Antiproliferative activity against human CAL-51 cells assessed as inhibition of cell growth incubated for 72 hrs by MTT assay. In kind it is functional, cell-based. To be noted: CAL-51, 72 h.
Data set [20] has as its target Cyclin-dependent kinase 2 (Homo sapiens, UniProt P24941). In words: Inhibition of CDK2 (unknown origin).
Data set [21] is described as follows: Clearance in Sprague-Dawley rat at 1 mg/kg, iv measured after 24 hrs by LC-MS/MS analysis. The data set is classed as ADME, organism-based. The conditions noted are these: in vivo.

Chain of Mitogen-activated protein kinase 8 (P45983 whole entry): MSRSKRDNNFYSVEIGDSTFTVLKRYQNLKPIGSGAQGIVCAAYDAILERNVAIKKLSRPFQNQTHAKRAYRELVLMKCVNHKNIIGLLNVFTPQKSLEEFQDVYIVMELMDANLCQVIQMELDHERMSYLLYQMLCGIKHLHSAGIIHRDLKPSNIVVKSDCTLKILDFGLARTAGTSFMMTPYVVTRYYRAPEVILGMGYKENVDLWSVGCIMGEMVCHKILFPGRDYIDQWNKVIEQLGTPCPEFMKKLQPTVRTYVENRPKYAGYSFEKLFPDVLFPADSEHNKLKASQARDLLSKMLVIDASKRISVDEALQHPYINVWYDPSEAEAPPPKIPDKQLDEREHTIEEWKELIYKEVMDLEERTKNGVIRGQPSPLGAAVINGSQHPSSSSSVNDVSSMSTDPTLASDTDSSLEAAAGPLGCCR

Broadly, the IC50 is the concentration that gives 50% inhibition. In the case of `CCOc1cc2c(-c3cccc(S(N)(=O)=O)c3)n[nH]c2cc1-c1cnn(C)c1`, the IC50 in data set [1] came out at 0.386 µM.

With `COc1cc(N2CCN(C)CC2)ccc1Nc1ncc2c(n1)-n1ccc(C(=O)Nc3c(C)cccc3C)c1CC2`, in data set [2], the IC50 was determined as 0.011 µM.

The compound `COC1CCN(C(=O)c2ccc(Nc3cc4[nH]c(C(=O)N(C)C)cc4cn3)c(Cl)c2)CC1` had an IC50 in [3] greater than 100 µM. In data set [4], the metabolised at 0.5 h worked out at 23%.

In turn, `CCOc1ccc2[nH]nc(-c3cccc(NC(C)=O)c3)c2c1` yielded a 50% inhibitory concentration (IC50) in [5] of 0.15 µM.

In the case of `CCOc1ccc2[nH]nc(-c3ccc(NC(C)=O)cc3)c2c1`, in data set [5], the concentration for half-maximal inhibition (IC50) stood at 0.028 µM.

Consider `CCc1ccccc1C(C(=O)Nc1ccc2[nH]nc(-c3cccc(S(N)(=O)=O)c3)c2c1)N(C)C` (centres undefined), for which, in data set [6], the inhibition in vivo at 12.5 mg/kg stood at 10%. In addition, half-maximal inhibition in [7] (IC50) required 0.7 µM.

In the case of `CCOc1cc2c(-c3cccc(S(N)(=O)=O)c3)n[nH]c2cc1-c1cn[nH]c1`, the IC50 in data set [1] was determined as 0.386 µM.

As a reminder, the clearance is a measure of how efficiently the substance is removed, as volume per time. A lower clearance goes with a low capacity for elimination. `COc1ccc(Oc2cc(NCCC(F)(F)F)c3ncc(-c4ccc(C(=O)NC5CC5)c(C)c4)n3n2)c(F)c1F` [BAY-1217389]: the clearance in data set [8] is 0.44 L/h/kg; in [10], 0.52 L/h/kg. Also, the AUC/dose in [9] amounted to 2.5 kg·h/L; in [11] it was 2.4 kg·h/L.

One may read the Cmax as the maximum level reached in the sampled fluid or tissue. The AUC is concentration integrated over time. Low readings indicate less exposure, high ones more exposure. By bioavailability is commonly meant the share of a dose that reaches the circulation, judged against a reference dose that is usually intravenous. The low end stands for poor availability, the high end for good availability. Turning to `C[C@H](Oc1cc(C(=O)N(C)C)ccc1Nc1nc(O[C@H]2CC[C@@](C)(O)CC2)c2c(Cl)c[nH]c2n1)C(F)(F)F`, the Cmax in data set [12] amounted to 5.2 µM; in [13] it was 4.35 µM. Moreover, in data set [14], the AUC at 24 h is 22.5 µM·h. The compound also displayed a bioavailability in [15] of 60%. Also, the 50% inhibitory concentration (IC50) in data set [16] is 0.01 µM; in data set [17], 0.0007 µM. In data set [18], this compound returned an AUC of 26.3 µM·h.

As for `COc1cc(C(=O)NCC(C)(C)O)ccc1Nc1nc(OC2CCCC2)c2c(-c3ccc4nc(C)oc4c3)c[nH]c2n1`, in data set [19], the IC50 came out at 0.06 µM.

For the compound `CN(C)C(=O)c1cc2cnc(Nc3ccc(-c4cnn(C)c4)cc3Cl)cc2[nH]1`, in data set [3], the IC50 is greater than 100 µM. In addition, the metabolised at 0.5 h in data set [4] amounted to 20%.

`CN(C)C(=O)c1cc2cnc(Nc3ccc(-c4cncn4C)cc3Cl)cc2n1C(=O)OC(C)(C)C`: the IC50 is greater than 40 µM in data set [3] and greater than 100 µM in data set [20]. The metabolised at 0.5 h in [4] was 28%.

In the case of `CNC(=O)c1ccc(Nc2nc(OC3CCCC3)c3c(-c4cc[nH]n4)c[nH]c3n2)c(OC)c1`, in [19], the IC50 came out at 0.4 µM.

`CCOc1cc2c(-c3ccc(C)c(S(N)(=O)=O)c3)n[nH]c2cc1-c1cnn(C)c1`: in data set [1], the IC50 turned out to be 0.386 µM.

In data set [21], `Cn1cc(-c2cc3[nH]nc(-c4cccc(S(N)(=O)=O)c4)c3cc2NC2CCCCC2)cn1` returned a clearance of 1.98 L/h/kg.
